Measurements: patent US20230103330A1, “MECHANISTIC BIOMARKER FOR PREDICTING THE SURVIVAL OF PANCREATIC CANCER PATIENTS” (The Regents of the University of California, priority 2020, published 2023)

Assays:
PKCβII = molecular target: T1, PKCβII (Rattus norvegicus, UniProt P68403); experiment: C kinase activity reporter (CKAR) FRET assay of cellular PKC activity; assay type: cell-based; conditions: for activation of WT PKCa and PKCβII (CKAR): COS7 cells, agonist treatment
T1 construct: expressed in transfected cells; host or cells: COS7
Method: (§1) For activity experiments COS7 cells were co-transfected with the indicated mCherry-tagged PKC construct and CKAR. For Kinameleon experiments, the indicated Kinameleon construct containing mYFP and mCFP was transfected alone. For translocation experiments, COS7 cells were co-transfected with the indicated mYFPtagged construct and plasma-membrane targeted mCFP at a ratio of 10:1. Baseline images were acquired every 15 s for 2 min prior to ligand addition. F6rster resonance energy transfer (FRET) ratios represent mean±SEM from at least three independent experiments.
(§2) All data were normalized to the baseline FRET ratio of each individual cell unless noted that absolute FRET ratio was plotted or traces were normalized to levels post-inhibitor addition. […] Every experiment contained an mCherry-transfected control to measure endogenous activity, and an mCherry-tagged WT (or deleted pseudosubstrate) PKC. Control traces are depicted as dotted lines: specifically, the endogenous trace in FIG. 1E and the deleted pseudosubstrate trace in FIGS. 2G and 31, were redrawn to serve as a point of reference in those figures (data were acquired and derived in the same experiments which generated all the data in FIGS. 1A-1E and FIGS. 2A-2G, respectively).

WT PKCβII = WT PKCβII (Rattus norvegicus, UniProt P68403); conditions: COS7 cells, PDBu 200 nM
Method: as §1, §2

[1] = molecular target: T2, PKCβII deleted pseudosubstrate (Rattus norvegicus, UniProt P68403, DEL19-36); experiment: Immunoblot of PKC priming phosphorylations after phosphatase inhibitor; assay type: cell-based; conditions: COS-7 cells, 20 minutes prior to lysis
T2 construct: expressed in transfected cells; host or cells: COS-7
Method: FIG. 8. PKC APS Phosphorylation Is Not Regulated by a Calyculin-Sensitive Phosphatase. Western blot of lysates from COS-7 cells expressing RFP-tagged PKCβII wild-type (WT) or deleted pseudosubstrate (APS) and treated with DMSO (−) or Calyculin A (Cal, 100pM) and Go6976 (6pM) for 20 minutes prior to lysis. Immunoblots were probed with PKC phospho-specific antibodies against the activation loop (pThr^500), turn motif (pThr” ^1), or hydrophobic motif ([…]), total overexpressed PKC (HA), or phospho-serine substrate (pSer) as a positive control for Calyculin A.
Cells were lysed in PPHB: 50 mM NaPO4 (pH 7.5), 1% Triton X-100, 20 mM NaF, 1 mM Na4P207, 100 mM NaCl, 2 mM EDTA, 2 mM EGTA, 1 mM Na3VO4, 1 mM PMSF, […] leupeptin, 1 mM DTT, and […]. Phlpp1+/+ and Ph/pp1-/−MEFs were lysed in 50 mM Tris (pH 7.4), 1% Triton X-100, 50 mM NaF, 10 mM Na4P207, 100 mM NaCl, 5 mM EDTA, 1 mM Na3VO4, 1 mM PMSF, […] leupeptin, and […]. Triton-soluble fractions were analyzed by SDS-PAGE on 7% big gels to observe phosphorylation shift, transfer to PVDF membrane (Biorad), and western blotting via chemiluminescence SuperSignal West reagent (Thermo Fisher) on a FluorChem Q imaging system (ProteinSimple). In western blots, the asterisk (*) denotes the position of mature, phosphorylated PKC; whereas, the dash (−) indicates the position of unphosphorylated PKC. […]

T1 sequence (P68403 1-673 isoform P68403-2): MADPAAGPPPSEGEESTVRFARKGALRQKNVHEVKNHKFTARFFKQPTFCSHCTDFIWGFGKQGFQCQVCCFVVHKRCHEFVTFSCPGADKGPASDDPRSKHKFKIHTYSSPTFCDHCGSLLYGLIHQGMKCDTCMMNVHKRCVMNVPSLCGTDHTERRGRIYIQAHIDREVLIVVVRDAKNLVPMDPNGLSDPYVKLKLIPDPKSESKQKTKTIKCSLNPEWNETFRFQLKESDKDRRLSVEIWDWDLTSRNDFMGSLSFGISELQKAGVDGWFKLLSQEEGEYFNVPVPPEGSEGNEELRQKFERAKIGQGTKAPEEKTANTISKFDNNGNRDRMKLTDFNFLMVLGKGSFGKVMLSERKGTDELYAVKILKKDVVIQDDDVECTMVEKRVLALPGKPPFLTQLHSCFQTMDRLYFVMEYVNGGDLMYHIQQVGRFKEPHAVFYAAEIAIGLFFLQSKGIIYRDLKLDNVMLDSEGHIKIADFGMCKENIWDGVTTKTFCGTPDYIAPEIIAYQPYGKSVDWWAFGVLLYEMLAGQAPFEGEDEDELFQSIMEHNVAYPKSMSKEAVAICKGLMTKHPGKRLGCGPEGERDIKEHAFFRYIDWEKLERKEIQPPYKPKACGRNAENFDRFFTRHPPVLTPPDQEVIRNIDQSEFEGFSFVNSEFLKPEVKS
WT PKCβII, sequence (P68403 1-673 isoform P68403-2): as above
T2 sequence (P68403 with tags, fused parts or gaps isoform P68403-2 DEL19-36): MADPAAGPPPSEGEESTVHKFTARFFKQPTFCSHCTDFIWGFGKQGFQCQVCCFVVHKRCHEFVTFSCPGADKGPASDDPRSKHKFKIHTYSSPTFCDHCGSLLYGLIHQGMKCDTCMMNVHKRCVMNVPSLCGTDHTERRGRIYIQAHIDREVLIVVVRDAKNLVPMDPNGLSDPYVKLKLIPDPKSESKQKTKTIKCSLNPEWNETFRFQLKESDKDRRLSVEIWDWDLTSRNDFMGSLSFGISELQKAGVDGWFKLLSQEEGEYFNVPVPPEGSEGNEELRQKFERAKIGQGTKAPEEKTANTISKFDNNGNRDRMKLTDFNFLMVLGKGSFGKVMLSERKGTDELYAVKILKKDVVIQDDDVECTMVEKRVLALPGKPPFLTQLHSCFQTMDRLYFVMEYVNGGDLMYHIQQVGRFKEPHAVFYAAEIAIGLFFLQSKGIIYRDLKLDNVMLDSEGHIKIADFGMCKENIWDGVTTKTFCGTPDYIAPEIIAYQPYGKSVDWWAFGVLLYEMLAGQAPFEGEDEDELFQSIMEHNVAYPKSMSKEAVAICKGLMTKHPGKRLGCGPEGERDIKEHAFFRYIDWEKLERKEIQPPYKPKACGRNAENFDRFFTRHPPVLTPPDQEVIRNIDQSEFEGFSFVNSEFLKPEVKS

For `CCCC(=O)O[C@@H]1[C@@H](C)[C@@]2(O)[C@@H](C=C(CO)C[C@]3(O)C(=O)C(C)=C[C@@H]23)[C@@H]2C(C)(C)[C@]12OC(=O)CCC` [PDBu, Phorbol 12,13-dibutyrate], the CKAR phosphorylation (PKCβII; COS7 cells expressing WT PKC or turn motif mutant (T641A), PDBu 200 nM) was “robust increase in CKAR phosphorylation”, the “activation of WT PKCa and PKCβII (CKAR)” value (PKCβII) was “activated” and the “FRET ratio of Kinameleon reporter” value (WT PKCβII) was “increase in FRET ratio”.
In the case of `O=c1ccn([C@@H]2O[C@H](COP(=O)(O)OP(=O)(O)OP(=O)(O)O)[C@@H](O)[C@H]2O)c(=O)[nH]1` [UTP, uridine triphosphate], the “activation of WT PKCa and PKCβII (CKAR)” value (PKCβII) was “activated”.
`COC[C@@H]([C@H](O)[C@H](O)C(=O)NCC[C@H](C)c1nc(/C=C/C[C@@H]2O[C@]3(C[C@@H](O)[C@@H]2C)O[C@H]([C@H](C[C@H](O)[C@H](C)[C@H](O)[C@H](C)/C=C(C)/C(C)=C/C=C/C(C)=C\C#N)OC)[C@H](OP(=O)(O)O)C3(C)C)co1)N(C)C` [Calyculin A] was tested, and the “rescue of phosphorylation at the three priming sites of pseudosubstrate-deleted PKC” value [1] was “could not be rescued”.
